Laboratory results from publication PMC5607274, “An iterative compound screening contest method for identifying target protein inhibitors using the tyrosine-protein kinase Yes” (Scientific Reports, 2017).

Target: T1, human recombinant Yes [a.a. 2–543 (end)] (Homo sapiens, UniProt P07947)
T1 construct: human recombinant Yes [a.a; 2–543 (end)]; purchased BPS Bioscience 40488
Experiment: ADP-Glo kinase assay, inhibition rates of Yes phosphorylation activity (first and second screening)
Format: biochemical
Details: 10 μmol L−1 compound; for First screening IR (inhibition rate): mean of n = 4 wells; for Second screening IR (inhibition rate): dissolved from fresh powder, n = 4
How it was run: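 Hits from a first pass were rescreened after re-dissolution from fresh powder. The first pass reported the mean inhibition rate of quadruplicate wells per compound. Activity was that of recombinant human Yes [a.a. 2–543] kinase, read out with the ADP-Glo ADP-detection method.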

T1 sequence (P07947 2-543): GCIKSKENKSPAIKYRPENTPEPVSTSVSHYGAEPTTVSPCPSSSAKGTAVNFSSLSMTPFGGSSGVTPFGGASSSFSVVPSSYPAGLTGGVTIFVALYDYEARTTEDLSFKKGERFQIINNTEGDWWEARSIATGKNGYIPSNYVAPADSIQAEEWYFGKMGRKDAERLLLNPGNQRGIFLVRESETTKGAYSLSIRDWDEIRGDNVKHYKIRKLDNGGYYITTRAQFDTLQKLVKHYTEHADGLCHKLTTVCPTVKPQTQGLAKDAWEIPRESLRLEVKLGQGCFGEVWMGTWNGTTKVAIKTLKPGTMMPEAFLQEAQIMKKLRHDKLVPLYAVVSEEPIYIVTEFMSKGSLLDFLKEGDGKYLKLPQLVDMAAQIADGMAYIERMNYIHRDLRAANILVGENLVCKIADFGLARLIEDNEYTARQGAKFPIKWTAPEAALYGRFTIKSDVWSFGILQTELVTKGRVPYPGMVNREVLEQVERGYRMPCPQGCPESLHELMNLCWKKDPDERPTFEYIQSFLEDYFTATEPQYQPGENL

First screening IR (inhibition rate) [%] | Second screening IR (inhibition rate) [%] | Compound
14 |  | O=C(Nc1cccc(C(F)(F)F)c1)c1cccc(NC(=O)c2cnccn2)c1 [Compound Z30576843]
-1 |  | Cc1sc2ncnc(SCC(=O)Nc3ncc(Cl)c(C)c3Cl)c2c1C [Compound Z20229401]
39 |  | Cc1cc(C(=O)Nc2ccc(F)c(F)c2)c2cnn(C(C)C)c2n1 [Compound Z203269322]
14 |  | CCCn1c(/C(Cl)=C/c2ccc(F)c(F)c2)nc2cc(S(=O)(=O)N3CCOCC3)ccc21 [Compound Z95254533]
-6 |  | Cc1cccc(OCC(=O)Nc2ccc(SC(=O)N(C)C)cc2)c1 [Compound Z1126778839]
51 |  | CCC1CCCCN1S(=O)(=O)c1ccc(S(C)(=O)=O)cc1 (stereo not drawn) [Compound Z300098278]
-7 |  | CN(C1CCCCCC1)S(=O)(=O)c1cccc(S(C)(=O)=O)c1 [Compound Z300508876]
3 |  | O=C(CCNC(=O)c1ccco1)Nc1ccc2nc(N3CCCC3)sc2c1 [Compound Z226430254]
-2 |  | CC(C)c1ccc(C(=O)N2CCN(c3ccc(C#N)cn3)CC2)cc1 [Compound Z319076580]
-18 |  | CN(Cc1ccc(N2CCOCC2)cc1)Cc1c(O)ccc2ccncc12 [Compound Z199499666]
6 |  | Cc1[nH]ncc1Nc1ccc2nccnc2n1 [Compound Z1182665660]
1 |  | Cc1ncc2c(n1)CCN(C(=O)NCc1cc(-c3ccccc3)no1)C2 [Compound Z558380580]
2 |  | Cc1ccn2cc(C(=O)NCCCn3nc(C)cc3C)nc2c1 [Compound Z137367324]
0 |  | O=C(CCCC1CCCCC1)Nc1ccc(-c2cnc[nH]2)cc1 [Compound Z91026356]
16 |  | CN1CCC(=O)Nc2cc(C(=O)N(C)C3CCCN(c4ccccc4)C3=O)ccc21 (stereo not drawn) [Compound Z1315092412]
7 |  | CCC1CCCCN1S(=O)(=O)c1cc(S(C)(=O)=O)ccc1Cl (stereo not drawn) [Compound Z355127288]
31 | 36 | Cc1ccc(/C=C/C2=Cc3c(sc(N)c3C#N)C(C)(C)C2)o1 [Compound Z56910454]
2 |  | CCc1nc2ccccc2c(C(=O)OCC(=O)Nc2cc(C(N)=O)cc(C(N)=O)c2)c1C [Compound Z19092990]
-3 |  | Cc1ccc(NC(=O)CC2SC(=Nc3ccccc3C)N(CCCN3CCOCC3)C2=O)c([N+](=O)[O-])c1 (stereo not drawn) [Compound Z48462494]
46 |  | Cc1ccc(-c2nn(-c3ccc(F)cc3)cc2C(=O)N(C)CC(=O)Nc2ccc(N3CCOCC3)cc2)cc1 [Compound Z26593504]
10 |  | CC(C)N(c1ccccc1)c1ccc(NC(=O)COC(=O)c2c3c(nc4ccccc24)CCCC3)cc1 [Compound Z19690670]
5 |  | CCOC(=O)c1c(-c2ccc(F)cc2)csc1NC(=O)CN1CCN(Cc2cc(OC)ccc2OC)CC1 [Compound Z46402002]
51 |  | CCCn1c(NC(=O)c2ccc3c(c2)NC(=O)C(C)S3)nc2ccccc21 (stereo not drawn) [Compound Z29076459]

First screening IR (inhibition rate) [%] | Second screening IR (inhibition rate) [%] | Compound
-7 |  | CC(C)(C)c1nc(SCC(=O)c2ccc3c(c2)CCC3)n[nH]1 [Compound Z335958518]
9 |  | Brc1cccc(C2C=C(c3ccccc3)Nc3ncnn32)c1 (stereo not drawn) [Compound Z56850769]
34 |  | Cc1cc(=O)[nH]c(C(C)Sc2ncn(-c3ccccc3)n2)n1 (stereo not drawn) [Compound Z1415883225]
1 |  | N#CC(C(=O)CCc1ccc(F)cc1)c1nc2cc(Cl)ccc2c(=O)[nH]1 (stereo not drawn) [Compound Z594627070]
0 |  | Cc1sc2nc(CN3CCC(C)CC3)nc(N3CCN(C(=O)c4ccccc4F)CC3)c2c1C [Compound Z275104396]
6 |  | COc1ccc(C(=O)Nc2n[nH]c(-c3ccc(F)cc3)n2)cc1 [Compound Z108548640]
-7 |  | O=C(NCCc1cnn(-c2ccccc2)c1)c1cnn(-c2ccccc2)c1 [Compound Z234515634]
40 |  | Cc1ccc2nc(-c3ccc(Nc4nnc(Cc5csc(C)n5)s4)cc3)sc2c1 [Compound Z119992430]
-3 |  | CC1(C)CCCN(S(=O)(=O)CCCS(C)(=O)=O)CC1 [Compound Z1271277951]
12 |  | CC(C)S(=O)(=O)CCS(=O)(=O)C(C)c1ccc(F)cc1 (stereo not drawn) [Compound Z1347351122]
6 |  | O=C(CCCSc1ccccc1)Nc1n[nH]c(-c2ccc(F)cc2)n1 [Compound Z108549090]
1 |  | CC(=O)NC12CC3CC(C1)CC(C(=O)Oc1ccc(N(C)S(=O)(=O)c4cc(C)ccc4C)cc1)(C3)C2 [Compound Z29631809]
58 |  | Cl.N#Cc1ccc(-c2cc(-c3ccccc3)c3cc(Cl)ccc3n2)cc1 [Compound Z48950825]
7 |  | COCCCCCn1ncc2ccc([N+](=O)[O-])cc21 [Compound Z1271542350]
-9 |  | COCCCn1c(=O)c2ccccc2n2c(=S)n(CN(Cc3ccc(N(C)C)cc3)C(C)C)nc12 [Compound Z729842360]
1 |  | CC1CCN(C(=O)c2nc3ncc(Br)cn3n2)CC(C)C1 (stereo not drawn) [Compound Z1500127626]
-4 |  | O=C(CCNC(=O)c1cccs1)Nc1ccc2nc(-c3cccc(F)c3)[nH]c2c1 [Compound Z594945904]
5 |  | CC(C)c1nncn1CCNC(=O)C(c1cc(Cl)cc(Cl)c1)N(C)C (stereo not drawn) [Compound Z1430823330]
22 |  | O=C(CN1CCN(Cc2nc3scc(-c4ccc(F)cc4)c3c(=O)[nH]2)CC1)N1CCCCCC1 [Compound Z126042696]
12 |  | CC(=O)Nc1ccc(SCc2noc(-c3cccc(C)c3)n2)cc1 [Compound Z388276110]
-9 |  | CN(CCS(=O)(=O)c1cc(Cl)ccc1Cl)Cc1nc2ccccc2c(=O)[nH]1 [Compound Z46302626]
8 |  | CC1(C)CN(c2nc(-c3ccncc3)nc3c2CCC3)CC[S+]1[O-] (stereo not drawn) [Compound Z1396757600]
43 | 24 | Oc1c(-c2nc3ccccc3c3ccccc23)sc2ncccc12 [Compound Z107727738]

First screening IR (inhibition rate) [%] | Second screening IR (inhibition rate) [%] | Compound
-15 |  | CS(=O)(=O)NS(=O)(=O)CCCCCl [Compound Z56755807]
-12 |  | CC(C)(C)OC(=O)N1CC(NC(=O)c2cc3c(F)cc(Br)cc3[nH]2)C1 [Compound Z1231909655]
-16 |  | CN(C)C(CNC(=O)c1cc(-c2ccccc2)nc2c1cnn2Cc1ccncc1)c1ccccc1 (stereo not drawn) [Compound Z116834630]
-1 |  | COC(=O)c1cc(NC(=O)C2=C(Cl)CCCC2)cc(C(=O)OC)c1 [Compound Z223943920]
45 |  | Cc1ccc2c(=O)c(C(=O)N(C)CC(=O)Nc3ccc(Cl)c(Cl)c3)c[nH]c2n1 [Compound Z454409356]
2 |  | Cc1sc2nc(-c3cccc(NC(=O)CN4CCN(CC5CCCO5)CC4)c3)[nH]c(=O)c2c1C (stereo not drawn) [Compound Z46510296]
0 |  | Cc1c(C(=O)Nc2ccnn2C2CCCC2)oc2c(Cl)cccc12 [Compound Z28468306]
12 |  | O=C(NCc1ccc(-c2nc3ccccc3s2)o1)c1ccco1 [Compound Z218238558]
18 |  | Cc1cccc(OCC(=O)Nc2sc3c(c2C(N)=O)CCC3)c1 [Compound Z26345967]
1 |  | O=C(O)c1ccc(/C=C2/CCCc3c2nc2ccccc2c3C(=O)O)cc1 [Compound Z46035770]
4 |  | Cc1[nH]c(=O)[nH]c(=O)c1CCC(=O)N1CCC(CCc2ccccc2)CC1 [Compound Z219953062]
27 | -4 | CN(C)c1ccc(/C=c2/s/c(=C(/C#N)C(=O)NCCN3CCOCC3)n(Cc3ccco3)c2=O)cc1 [Compound Z48025165]
-6 |  | Cc1ccc(C)c(S(=O)(=O)N(CC(=O)Nc2ccc(Oc3ccccc3)cc2)Cc2ccc(F)cc2)c1 [Compound Z26125608]
31 |  | CCn1ncc2c(C(=O)Nc3ccc(F)c([N+](=O)[O-])c3)cc(-c3cccs3)nc21 [Compound Z225316878]
-8 |  | CCC(Sc1n[nH]c(C(C)C)n1)C(=O)Nc1ccc(F)cc1 (stereo not drawn) [Compound Z193785446]
-11 |  | Cc1cccc(C)c1NC(=O)CN1CCN(C(C(=O)N2CCCCC2)c2ccccc2)CC1 (stereo not drawn) [Compound Z106611352]
9 |  | CCN(C1CCS(=O)(=O)C1)S(=O)(=O)c1ccc(C)cc1 (stereo not drawn) [Compound Z45467092]
-6 |  | O=C(Cc1coc(-c2ccccc2)n1)Nc1ccc2ccccc2n1 [Compound Z167063860]
-21 |  | CCCCN(C1CCS(=O)(=O)C1)S(C)(=O)=O (stereo not drawn) [Compound Z237523250]
2 |  | Cc1cccc(NCC2CCN(Cc3cccc(C(N)=O)c3)C2)n1 (stereo not drawn) [Compound Z990551490]
21 |  | FC(F)(F)c1ccnc(Nc2ccc3c(c2)OCO3)n1 [Compound Z285674740]
4 |  | CC(NC(=O)C(NC(=O)c1ccco1)C(C)C)c1ccc(-n2ccnc2)cc1 (stereo not drawn) [Compound Z27306758]
-12 |  | CN(CC(=O)N1CCc2ccccc2C1)Cc1nc2ccccc2c(=O)[nH]1 [Compound Z46302902]
